Test results as given in patent US12377104B1, “Methods for treating a fatty liver disease” (Madrigal Pharmaceuticals, Inc., priority 2024, dated 2025).
“And” between values parts separate entries of the source, which are not always exact repeats. Equal entries are not always repeated.

How the values were obtained:
[1] = Effect of food (high-fat meal) on pharmacokinetics; assay type: in vivo, human; conditions: high-fat meal vs fasted
[2] = test system: adults with biopsy-confirmed NASH; assay: MAESTRO-NASH: lipids, lipoproteins and lipid particles; assay type: in vivo, human; conditions: 80 mg; for ApoB, Least Squares Mean % CFB / ApoB, Least Squares Mean % CFB Difference from PBO / LDL-C, Least Squares Mean % CFB / LDL-C, Least Squares Mean % CFB Difference from PBO: baseline LDL-C >100 mg/dL; for Lp(a), LS mean % CFB / Lp(a), LS mean % CFB difference from PBO: baseline Lp(a) >10 nmol/L
Description: Within the study, we provided analyses based on an analysis of covariance (ANCOVA) model after having performed single imputation for LDL-C as described in the statistical analysis plan (SAP). The ANCOVA model estimated least-squares means using treatment and baseline LDL-C as covariate.
To this end, the Week 24 LDL-C assessment and assessments at any visit in which LDL-C is measured (Weeks 4, 12, 16, 20, 24, 28, 32, 36, 40, 44, 48, and 52) that has been impacted by kit shortage at the prior visit (unavailability of […] (IP) during the 4 weeks preceding the visit due to the COVID-19 pandemic as indicated on the electronic case report form (eCRF)), were considered missing and were imputed from an unaffected assessment at surrounding visits or using data from subjects unaffected by this intercurrent event as described in Section 11.2 of the SAP. In summary, single imputation utilizing adjacent and valid […] measurements were imputed.
For missing lipid data that are still missing after the single imputation approach described, those missing lipid data were imputed using the non-missing lipid values (including the singly imputed data) based on missing at random (MAR)-based (MI). When applying the MAR-based […], data were imputed separately by randomized treatment group and baseline stratification factors.

[3] = week 24, baseline triglycerides >150 mg/dL

In the case of `CC(C)c1cc(Oc2c(Cl)cc(-n3nc(C#N)c(=O)[nH]c3=O)cc2Cl)n[nH]c1=O` [Resmetirom, 2-(3,5-dichloro-4-((5-isopropyl-6-oxo-1,6-dihydropyridazin-3-yl)oxy)phenyl)-3,5-dioxo-2,3,4,5-tetrahydro-1,2,4-triazine-6-carbonitrile], the “decrease in AUC with food” value [1] is reported as 11%, the “decrease in Cmax with food” value [1] is reported as 33% and the Tmax ([1]; human, plasma, oral, read-out: delay in median Tmax with food) is reported as ~2 h. For the same molecule, the “Apolipoprotein B level, difference from placebo” value ([2]; wk 24) was −17.2 percentage points, the “Apolipoprotein B level, least-squares mean percent change from baseline” value ([2]; wk 24) was −16.8 ± 1.3% and the “LDL cholesterol level, difference from placebo” value ([2]; wk 24) was −13.7 percentage points. The “LDL cholesterol level, least-squares mean percent change from baseline” value ([2]; wk 24) was −13.6% and −13.6 ± 1.7%, the “Lipoprotein(a) level, difference from placebo” value ([2]; wk 24) was −29.5 percentage points and the “Triglyceride level, difference from placebo” value ([2]; wk 24) was −20.1 percentage points. For the same molecule, the “Lipoprotein(a) level, least-squares mean percent change from baseline” value ([2]; wk 24, baseline lipoprotein(a) >10 nmol per liter) was −30.4 ± 3.8%, the “Triglyceride level, least-squares mean percent change from baseline” value ([2]; wk 24, baseline triglyceride >150 mg per deciliter) was −22.7 ± 4.0% and the “ApoB, LS mean % CFB” value ([2]; Week 24) was −16.8%. For the same molecule, the “ApoB, LS mean % CFB difference from PBO” value ([2]; Week 24) was −17.2%, the “ApoCIII, Least Squares Mean % CFB” value ([2]; Week 24) was −10.6% and the “ApoCIII, Least Squares Mean % CFB Difference from PBO” value ([2]; Week 24) was −18.7%. For the same molecule, the “HDL-C, Least Squares Mean % CFB” value ([2]; Week 24) was 2.7%, the “HDL-C, Least Squares Mean % CFB Difference from PBO” value ([2]; Week 24) was 0.98% and the “LDL-C, LS mean % CFB” value ([2]; Week 24) was −13.6%. The “LDL-C, LS mean % CFB difference from PBO” value ([2]; Week 24) was −13.7%, the “Non-HDL-C, Least Squares Mean % CFB” value ([2]; Week 24) was −15.2% and the “Non-HDL-C, Least Squares Mean % CFB Difference from PBO” value ([2]; Week 24) was −15.4%. For the same molecule, the “ApoB, Least Squares Mean % CFB” value ([2]; Week 24) was −21.9%, the “ApoB, Least Squares Mean % CFB Difference from PBO” value ([2]; Week 24) was −18.1% and the “LDL-C, Least Squares Mean % CFB” value ([2]; Week 24) was −21.3%. For the same molecule, the “LDL-C, Least Squares Mean % CFB Difference from PBO” value ([2]; Week 24) was −15.4%, the “ApoCIII, Least Squares Mean % CFB” value ([2]; Week 52) was −10.0% and the “ApoCIII, Least Squares Mean % CFB Difference from PBO” value ([2]; Week 52) was −19.8%. For the same molecule, the “HDL particle size, Least Squares Mean % CFB” value ([2]; Week 52) was 0.90%, the “HDL particle size, Least Squares Mean % CFB Difference from PBO” value ([2]; Week 52) was 0.60% and the “HDL particles, Least Squares Mean % CFB” value ([2]; Week 52) was 5.2%. The “HDL particles, Least Squares Mean % CFB Difference from PBO” value ([2]; Week 52) was 3.6%, the “HDL-C, Least Squares Mean % CFB” value ([2]; Week 52) was 4.7% and the “HDL-C, Least Squares Mean % CFB Difference from PBO” value ([2]; Week 52) was 2.1%. For the same molecule, the “LDL particle size, Least Squares Mean % CFB” value ([2]; Week 52) was −0.32%, the “LDL particle size, Least Squares Mean % CFB Difference from PBO” value ([2]; Week 52) was −0.36% and the “LDL particles, Least Squares Mean % CFB” value ([2]; Week 52) was −16.8%. For the same molecule, the “LDL particles, Least Squares Mean % CFB Difference from PBO” value ([2]; Week 52) was −16.1%, the “Large HDL particles, Least Squares Mean % CFB” value ([2]; Week 52) was 12.3% and the “Large HDL particles, Least Squares Mean % CFB Difference from PBO” value ([2]; Week 52) was 0.06%. The “Large LDL particles, Least Squares Mean % CFB” value ([2]; Week 52) was 47.8%, the “Large LDL particles, Least Squares Mean % CFB Difference from PBO” value ([2]; Week 52) was −38.6% and the “Large VLDL and chylomicron particles, Least Squares Mean % CFB” value ([2]; Week 52) was −5.7%. For the same molecule, the “Large VLDL and chylomicron particles, Least Squares Mean % CFB Difference from PBO” value ([2]; Week 52) was −16.8%, the “Medium HDL particles, Least Squares Mean % CFB” value ([2]; Week 52) was 88.2% and the “Medium HDL particles, Least Squares Mean % CFB Difference from PBO” value ([2]; Week 52) was 23.1%. For the same molecule, the “Medium VLDL particles, Least Squares Mean % CFB” value ([2]; Week 52) was −18.7%, the “Medium VLDL particles, Least Squares Mean % CFB Difference from PBO” value ([2]; Week 52) was −134.5% and the “Non-HDL-C, Least Squares Mean % CFB” value ([2]; Week 52) was −15.7%. For the same molecule, the “Non-HDL-C, Least Squares Mean % CFB Difference from PBO” value ([2]; Week 52) was −15.3%, the “Small LDL particles, Least Squares Mean % CFB” value ([2]; Week 52) was −3.3% and the “Small LDL particles, Least Squares Mean % CFB Difference from PBO” value ([2]; Week 52) was −25.0%. The “Small VLDL particles, Least Squares Mean % CFB” value ([2]; Week 52) was 62.9%, the Small VLDL particles, Least Squares Mean % CFB Difference from PBO ([2]; Week 52) was -21.3% and the “VLDL and chylomicron particles, Least Squares Mean % CFB” value ([2]; Week 52) was −11.2%. The “VLDL and chylomicron particles, Least Squares Mean % CFB Difference from PBO” value ([2]; Week 52) was −19.4%, the “VLDL and chylomicron triglycerides, Least Squares Mean % CFB” value ([2]; Week 52) was −14.7% and the “VLDL and chylomicron triglycerides, Least Squares Mean % CFB Difference from PBO” value ([2]; Week 52) was −19.6%. For the same molecule, the “VLDL particle size, Least Squares Mean % CFB” value ([2]; Week 52) was 1.9%, the “VLDL particle size, Least Squares Mean % CFB Difference from PBO” value ([2]; Week 52) was −0.05% and the “ApoB, Least Squares Mean % CFB” value ([2]; Week 52) was −25.0%. For the same molecule, the “ApoB, Least Squares Mean % CFB Difference from PBO” value ([2]; Week 52) was −18.5%, the “LDL-C, Least Squares Mean % CFB” value ([2]; Week 52) was −25.3% and the “LDL-C, Least Squares Mean % CFB Difference from PBO” value ([2]; Week 52) was −15.7%. For the same molecule, the “Lp(a), LS mean % CFB” value ([2]; week 24) was 30.4%, the Lp(a), LS mean % CFB difference from PBO ([2]; week 24) was -29.5% and the Triglycerides, LS mean % CFB [2, 3] was -22.7%. The “Triglycerides, LS mean % CFB difference from PBO” value [2, 3] was −20.1%, the ApoB, LS mean % CFB ([2]; week 52) was -16.2% and the “ApoB, LS mean % CFB difference from PBO” value ([2]; week 52) was −16.8%. For the same molecule, the LDL-C, LS mean % CFB ([2]; week 52) was -13.7%, the “LDL-C, LS mean % CFB difference from PBO” value ([2]; week 52) was −13.3% and the “Lp(a), LS mean % CFB” value ([2]; week 52) was −34.0%. For the same molecule, the “Lp(a), LS mean % CFB difference from PBO” value ([2]; week 52) was −29.5%.
